These results are taken from publication PMC8966651, “PKPD Modeling of the Inoculum Effect of Acinetobacter baumannii on Polymyxin B in vivo” (Frontiers in Pharmacology, 2022).

For data set [1] the following is noted: ultracentrifugation, ref Landersdorfer et al., 2018, cited from earlier work. An excerpt:
This discrepancy may be explained by differences in methodology. We used ultra-filtration after correction for non-specific adsorption on membranes to determine unbound fraction individually in infected mice, whereas the previous study used ultracentrifugation and pooled plasma sampled drawn from infected mi ...

Data set [2] can be described thus: PMB plasma protein binding by ultrafiltration (Centrifree) of plasma from infected mice. It counts as in vitro ADME. As to conditions: mouse plasma. On the procedure:
(§1) The PK of PMB was determined in neutropenic mice infected with the bacterial inoculum size of 10^6 CFU/thigh (n = 56). Mice were anesthetized by isoflurane (AbbVie, Rungis, France) inhalation (3%) for 5 min at each sampling time. Blood samples were collected by intracardiac puncture into heparinized tubes up to 24 h after PMB administration for a total of 7 time points per dose level (n = 3 animals per time point). Plasma was separated from the whole blood after centrifugation at 4,000 rpm for 10 min at 4°C and divided into two samples. The first sample was used to determine total PMB concentrations and the second one (0.15 ml) was ultrafiltered (4000 rpm for 30 min at room temperature) using Centrifree® ultrafiltration devices from Millipore (Merck KGaA) to determine unbound PMB concentrations and consequently protein binding. The non-specific binding of PMB to the membrane of the Centrifree® ultrafiltration devices ([Sader et al., 2012]) was determined by ultrafiltration of PMB solutions in phosphate buffer (pH7.2) at concentrations ranging from 0.2 to 7.5 mg/L and was used to correct ultrafiltrate concentrations. Plasma samples and ultrafiltrates were stored at −20°C until further analysis. Total and unbound PMB concentrations were determined by a liquid chromatography tandem mass spectrometry (LS-MS/MS) method (Supplemental Material).
A saturable non-specific binding (NSB) of PMB to the ultrafiltration membrane, translating to a non-linear decrease of PMB NSB when PMB concentration increased, was observed (Supplementary Figure S1) and could be described by the following equation: NSB = 0.47−0.16×ln(UF) (3) Where NSB corresponds to the non-specific binding (%) and UF to PMB concentrations in ultrafiltrates (mg/L). Equation 3 was used to correct ultrafiltrates concentrations, as follows: Unbound concentrations = UF/1−NSB (4)

Data set [3] in a line: PMB pharmacokinetics after a single subcutaneous dose in neutropenic thigh-infected mice (two-compartment model). Type of data set: in vivo. The settings on record: for Tmax: neutropenic mice infected with 10^6 CFU/thigh, n = 3 per time point, read-out: time to peak (Tmax). The protocol: Animal experiments were carried out according to the EC Directive 2010/63/EU. They were approved by the local ethics committee (COMETHEA) and registered by the French Ministry of Higher Education and Research (approval numbers: 2019022216097190 and 2017072415099072). Five-week-old male Swiss RjOrl mice (n = 296) weighing 34 ± 2 g (mean ± standard deviation [SD]) were obtained from Janvier Labs (Saint-Berthevin, France). All animals were acclimatized in ventilated racks in a temperature-regulated environment with a 12 h light-dark cycle, with free access to food and water for a minimum of 5 days before the beginning of the experiment. Neutropenia was induced by intraperitoneal administrations of cyclophosphamide at 150 and 100 mg/kg, 4 days and 1 day prior to experimental infection, respectively ([Landersdorfer et al., 2018]). Thigh infection was induced by intramuscular administration of 0.1 ml of a bacterial suspension of 10^6, 10^7 or 10^8 CFU/ml (corresponding to 10^5, 10^6 and 10^7 CFU/thigh, respectively), into one of the posterior thigh muscles. Thus, three groups of mice were distinguished according to the inoculum injected (n = 76, 146 and 74 for 10^5, 10^6 and 10^7 CFU/thigh, respectively) Each group was divided into two subgroups: treated (n = 48, 116 and 45 for 10^5, 10^6 and 10^7 CFU/thigh, respectively) and control mice (n = 28, 30 and 29 for 10^5, 10^6 and 10^7 CFU/thigh, respectively).
Two hours after bacterial inoculation, mice received either a single subcutaneous administration of PMB (1, 15 or 40 mg/kg for mice infected with 10^6 and 10^7 CFU/thigh, and 15 or 40 mg/kg for mice infected with 10^5 CFU/thigh), or a subcutaneous administration of saline solution (control group).
as §1
A PKPD model was developed in two steps to quantify the exposure-effect relationship of PMB in infected mice. First, time courses of total and unbound PMB concentrations were modeled and then, PK parameters were fixed during development of the PD part of the PKPD model.
Different structural models including one, two or three compartments, linear, nonlinear (Michaelis-Menten) or parallel linear/nonlinear elimination were evaluated to describe PK data. Models with linear and nonlinear absorption were also tested. Additive, proportional and exponential residual error models were explored.
Model selection was based on objective function value (OFV) and goodness of fit (GOF) plots. When two models were nested, a decrease in OFV of at least 3.84 (chi square 1df p = 0.05) was needed to select the most complex model. […]

[4] abbreviates: final PK model, estimate (%RSE).

The structures appear in SMILES notation. Counter-ions that a name gives are not always drawn. Like-named read-outs stand apart in the source and are kept apart here. Bridge positions count the residues as written; N and C are the ends. Square brackets hold non-standard residues; d marks the D form. Peptide text beside a SMILES is read from it. * marks the point of attachment. X1 = CC[C@H](C)CCCCC(=O)*; Dab = NCC[C@H](N)C(=O)O

As to `CC[C@H](C)CCCCC(=O)N[C@@H](CCN)C(=O)N[C@H](C(=O)N[C@@H](CCN)C(=O)N[C@H]1CCNC(=O)[C@H]([C@@H](C)O)NC(=O)[C@H](CCN)NC(=O)[C@H](CCN)NC(=O)[C@H](CC(C)C)NC(=O)[C@@H](Cc2ccccc2)NC(=O)[C@H](CCN)NC1=O)[C@@H](C)O` [PMB, Polymyxin B sulfate] (X1-[Dab]T[Dab][Dab][Dab][dF]L[Dab][Dab]T; lactam 4-C), the plasma protein binding is recorded as about 90% in data set [1] (mouse plasma, pooled plasma spiked with PMB) and about 80% in data set [2] (ultrafiltration, this study). Further, the unbound fraction in data set [1] (pooled plasma from infected mice spiked with PMB) is 0.086; in data set [2] (infected mice, ultrafiltration corrected for non-specific binding, model estimate), 17%. The fraction unbound (in general, the share of the substance not bound to proteins or other matrix) in data set [2] (male, Swiss RjOrl, sc, infected mice, ultrafiltration 4000 rpm 30 min room temperature, corrected for non-specific binding to membrane, LC-MS/MS, model estimate (%RSE)) is 0.166. In addition, the “increase of total Cmax when dose increased from 1 to 40 mg/kg” value in data set [3] (SC, plasma, infected mice) came out at 15 fold. Further, the Maximum absorption rate in data set [3] (final PK model, saturable SC absorption, estimate (%RSE), doses 1, 15, 40 mg/kg) is 14.7 (10.3) mg/h/kg. For the same compound, the “Amount in the subcutaneous compartment that produces 50% of the maximum absorption rate” value in data set [3] (setting [4]) is 2.24 (41.4) mg/kg. Further, the “Distribution volume of the central compartment” value in data set [3] (setting [4]) was 0.740 (16.7) L/kg. Also, in data set [3] (setting [4]), the “Distribution volume of the peripheral compartment” value is given as 0.743 (16.4) L/kg. Besides, the Intercompartmental clearance in data set [3] (setting [4]) is recorded as 0.315 (27.3) L/h/kg. In addition, the Cmax in data set [3] (male, Swiss RjOrl, mouse, plasma, sc, 1 mg/kg, plasma, single SC dose 1 mg/kg, mean ± SD, infected mice 10^6 CFU/thigh, LC-MS/MS, SD, read-out: Total PMB peak concentration (Cmax)) is 920 ± 140 ng/mL; in data set [3] (male, Swiss RjOrl, mouse, plasma, sc, 40 mg/kg, plasma, single SC dose 40 mg/kg, mean ± SD, infected mice 10^6 CFU/thigh, LC-MS/MS, SD, read-out: Total PMB peak concentration (Cmax)), 13800 ± 810 ng/mL; in data set [3] (male, Swiss RjOrl, mouse, plasma, sc, 40 mg/kg, this study, SC, highest dose 40 mg/kg, read-out: peak concentrations at the highest dose), 15000 ng/mL. In addition, the CL/F in data set [3] (male, Swiss RjOrl, mouse, plasma, sc, final PK model, linear elimination, estimate (%RSE), read-out: Clearance (converted)) is 7.28 mL/min/kg. Moreover, the Tmax (usually the time from dosing to the highest level) in data set [3] (male, Swiss RjOrl, mouse, plasma, single SC dose 1 mg/kg, LC-MS/MS) was 0.5 h; in data set [3] (male, Swiss RjOrl, mouse, plasma, single SC dose 40 mg/kg, LC-MS/MS), 2 h.
